Experiment [1] relates to HEp-2. As to the kind of experiment: Compound was evaluated for cytotoxicity against H.Ep.-2 cells, and concentration required to inhibit the growth of treated cells to 50% of untreated control. It is filed as functional, cell-based. The conditions noted are these: Homo sapiens.
The subject of experiment [2] is L1210 (1565). As to the kind of experiment: (§1) Compound was evaluated for cytotoxicity against L-1210 (AK-) cells, and concentration required to inhibit the growth of treated cells to 50% of untreated control. It is filed as functional, cell-based. The conditions noted are these: Mus musculus.
In experiment [3] the test system is L1210 (1565). As to the kind of experiment: Compound was evaluated for cytotoxicity against L-1210 cells, and concentration required to inhibit the growth of treated cells to 50% of untreated control. The conditions noted are these: Mus musculus. It is filed as functional, cell-based.
Experiment [4] relates to S-adenosyl-L-homocysteinase (Mus musculus). As to the kind of experiment: Inhibition of S-adenosyl-L-homocysteinase from L-1210 cells.
Experiment [5] concerns HEp-2. As to the kind of experiment: Compound was evaluated for cytotoxicity against H.Ep.-2 (AK-) cells and concentration required to inhibit the growth of treated cells to 50% of untreated control. The conditions noted are these: Homo sapiens. It counts as functional, cell-based.
For experiment [6], the system named is L1210 (1565). The description is as §1. It is filed as functional, cell-based. The conditions noted are these: Mus musculus. The source holds these as a separate data set.
In experiment [7] the test system is HEp-2. As to the kind of experiment: Compound was evaluated for cytotoxicity against H.Ep.-2 cells and concentration required to inhibit the growth of treated cells to 50% of untreated control was reported. It is filed as functional, cell-based. The note with it: Homo sapiens.

One may read the IC50 as the point on the concentration scale where inhibition reaches its midpoint. Low values mean higher potency, high ones lower potency. What is called Ki is a measure of affinity in units of concentration, obtained from inhibition or displacement.

Each structure is given as a SMILES string.

`Nc1nccc2c1ncn2[C@@H]1O[C@H](CO)[C@@H](O)[C@H]1O`: the IC50 in experiment [1] turned out to be 20 µM.

For `Nc1ncnc2c1ccn2[C@@H]1C[C@H](CO)[C@H](O)C1O` (stereo not given in full), the IC50 is 1.4 µM in experiment [1], above 40 µM in experiment [2] and 4 µM in experiment [3]. Moreover, in experiment [4], the Ki was found to be 44 µM.

In the case of `Nc1ncnc2c1ncn2[C@@H]1O[C@H](CO)[C@@H](O)[C@H]1O` [ADENOSINE], the concentration for half-maximal inhibition (IC50) amounted to 20 µM in experiment [5] and 0.7 µM in experiment [1].

Take `Nc1nccc2c1ncn2[C@@H]1C[C@H](CO)[C@H](O)C1O` (stereo not given in full): the IC50 in experiment [1] turned out to be 0.6 µM; in experiment [2], 1 µM; in experiment [6], 1 µM; in experiment [3] it was 4 µM.

With `Nc1ncnc2[nH]ccc12`, the IC50 in experiment [1] was above 70 µM.

Consider `Nc1[nH]ccc2ncnc1-2`, for which the IC50 in experiment [7] was 7 µM.

As for `Nc1ncnc2c1ccn2[C@@H]1O[C@H](CO)[C@@H](O)[C@H]1O` [TUBERCIDIN], the IC50 in experiment [5] was above 3 µM; in experiment [1], 0.002 µM.

The record behind these values is ChEMBL document CHEMBL1122762, “(+/-)-3-(4-Amino-1H-pyrrolo[2,3-d]pyrimidin-1-yl)-5-(hydroxymethyl)- (1 alpha,2 alpha,3 beta,5 beta)-1,2-cyclopentanediol, the carbocyclic analogue of tubercidin” (J Med Chem, 1984).
